# Data published in publication PMC5484141, “Asperentin B, a New Inhibitor of the Protein Tyrosine Phosphatase 1B” (Marine Drugs, 2017).
# Several values for one entry are separate records, joined by “and”; a condition that tells them apart may be missing. Identical values can stand only once. Entries after “also recorded” stand apart in the source; their conditions may differ. Like-named read-outs stand apart in the source and are kept apart here.
# Columns and labels:
# leukemia cell line P388 = system: leukemia cell line P388; parameters: method as in PMID 17958319; details: cited from earlier work
# PTP1B [1] = system: PTP1B; parameters: method as in PMID 25819098; details: read-out: IC50 value against PTP1B; cited from earlier work
# [2] = target: T1, human recombinant protein tyrosine phosphatase 1B (PTP1B) (Homo sapiens, UniProt P18031); experiment: PTP1B inhibition assay with substrate IR5 (Biomol green phosphate detection); assay type: biochemical
# T1 construct: purchased Biomol SE332-0050
# Procedure: The effect of 1 and 2 on human recombinant protein tyrosine phosphatase 1B (PTP1B) was tested in microtiter plates. […] After warming for 10 min to the assay temperature of 30 °C 5 μL of human recombinant PTP1B (Biomol; CatNo. SE332-0050) stock solution (1 ng/μL) were added. The reaction was started with 50 μL of the substrate IR5 (insulin receptor amino acids 1142–1153 with pTyr at position 1146 (Biosyntan, Berlin, Germany) dissolved in PTP1B assay buffer to a concentration of 0.15 mM. The phosphopeptid IR5 comprises the amino acid sequence Thr-Arg-Asp-Ile-p[…]COOH and is part of the autophosphorylation domain of the insulin receptor (IR). After an incubation period of 25 min at 30°C the reaction was stopped by adding 150 μL of Biomol green (Biomol, CatNo. AK111-0250). PTP1B dephosphorylates the IR5 substrate resulting in the release of orthophosphate which was quantified after incubating for 20 min at 620 nm using the microtiter plate reader Infinite M200 (Tecan Group Ltd., Männedorf, Switzerland). […] IC50 values were determined as duplicates.
# Propionibacterium acnes = experiment: Antimicrobial activity against Propionibacterium acnes; assay type: cell-based
# Procedure: (§1) Antimicrobial activities of compounds 1 and 2 against Bacillus subtilis DSM 347, Staphylococcus lentus DSM 6672, Propionibacterium acnes, Xanthomonas campestris, and Septoria tritici, as well as the cytotoxic activity against the cell lines HepG3 (hepatocellular carcinoma) and HT29 (colon adenocarcinoma) were assayed as described by Schneemann et al. [27].
# Xanthomonas campestris = experiment: Antimicrobial activity against Xanthomonas campestris; assay type: cell-based; details: concentrations of 100 μM (stated for 1)
# Procedure: as §1
# Septoria tritici = experiment: Antimicrobial activity against Septoria tritici; assay type: cell-based
# Procedure: (§2) Antimicrobial activities of compounds 1 and 2 against Bacillus subtilis DSM 347, Staphylococcus lentus DSM 6672, Propionibacterium acnes, Xanthomonas campestris, and Septoria tritici, as well as the cytotoxic activity against the cell lines HepG3 (hepatocellular carcinoma) and HT29 (colon adenocarcinoma) were assayed as described by Schneemann et al. [27]. The effect on the growth of human pathogenic yeast, Candida albicans DSM 1386, was measured according to Ohlendorf et al. [28]. The activity of compound 2 against the dermatophyte Trichophyton mentagrophytes was tested as described by Nagel et al. [29].
# [3] = system: Candida albicans DSM 1386; experiment: Growth of human pathogenic yeast Candida albicans; assay type: cell-based; details: concentrations of 100 μM
# Procedure: as §2
# [4] = system: Bacillus subtilis DSM 347; experiment: Antimicrobial activity against Bacillus subtilis; assay type: cell-based; details: concentrations of 100 μM (stated for 1)
# Procedure: as §1
# [5] = system: Staphylococcus lentus DSM 6672; experiment: Antimicrobial activity against Staphylococcus lentus; assay type: cell-based; details: concentrations of 100 μM (stated for 1)
# Procedure: as §1
# HepG2 = experiment: Cytotoxic activity against HepG2; assay type: cell-based; details: test concentrations up to 50 μM
# Procedure: as §2
# [6] = system: HT29 (colon adenocarcinoma); experiment: Cytotoxic activity against HT29; assay type: cell-based; details: test concentrations up to 50 μM (stated for 1)
# Procedure: as §1
# [7] = system: Trichophyton mentagrophytes; experiment: Activity against the dermatophyte Trichophyton mentagrophytes; assay type: cell-based; details: read-out: inhibition of T. mentagrophytes in comparison to the positive control clotrimazole, concentration of 100 μM
# Procedure: as §2
# [8] = system: dermatophytes, including Trichophyton rubrum; parameters: method as in PMID 5169000; details: cited from earlier work
# Rhizoctonia solani = system: Rhizoctonia solani; parameters: method as in PMID 5169000; details: cited from earlier work
# Arthrobacter citreus = system: Arthrobacter citreus; parameters: method as in PMID 646581; details: cited from earlier work
# Bacillus brevis = system: Bacillus brevis; parameters: method as in PMID 646581; details: cited from earlier work
# Sarcina lutea = system: Sarcina lutea; parameters: method as in PMID 646581; details: cited from earlier work
# [9] = system: etiolated wheat coleoptile; parameters: method as in PMID 8229019; details: concentration of 1 mM; cited from earlier work
# [10] = system: Colletotrichum gleosporoides; parameters: method as in PMID 25517217; details: cited from earlier work
# Botrytis cinerea = system: Botrytis cinerea; parameters: method as in PMID 25517217; details: cited from earlier work
# [11] = system: glycogen synthase kinase GSK-3 β; parameters: method as in PMID 27801816; details: cited from earlier work
# PTP1B [12] = system: PTP1B; parameters: method as in earlier work; details: substrate p-nitrophenyl phosphate; ref 13 (McCain et al.); read-out: IC50 value against PTP1B; cited from earlier work
# Micrococcus flavus = system: Micrococcus flavus; parameters: method as in PMID 5169000; details: cited from earlier work
# [13] = parameters: method as in doi:10.1007/s11802-014-2216-2; details: cited from earlier work
# T1 sequence (P18031 1-322 limits assumed): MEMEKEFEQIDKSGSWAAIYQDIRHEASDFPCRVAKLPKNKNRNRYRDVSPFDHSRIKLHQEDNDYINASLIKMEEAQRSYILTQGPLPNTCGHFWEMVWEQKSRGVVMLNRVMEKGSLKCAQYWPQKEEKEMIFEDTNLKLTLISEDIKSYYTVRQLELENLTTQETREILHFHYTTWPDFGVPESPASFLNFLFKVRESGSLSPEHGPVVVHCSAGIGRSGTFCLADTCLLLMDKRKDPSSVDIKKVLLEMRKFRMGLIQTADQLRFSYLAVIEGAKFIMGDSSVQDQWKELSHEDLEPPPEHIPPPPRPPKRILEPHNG
compound,measurement,setting,value
"CC(=O)C(C)c1oc(C)c(C)c(=O)c1C (stereo not shown) [2,3,5-trimethyl-6-(3-oxobutan-2-yl)-4H-pyran-4-one]",cytotoxic effects on P388,leukemia cell line P388,cytotoxic effects
"C/C=C/[C@H]1CC(=O)c2cc(C)c(O)c(C)c2O1 [(2R)-2,3-dihydro-7-hydroxy-6,8-dimethyl-2-[(E)-prop-1-enyl]chromen-4-one]",cytotoxic effects on P388,leukemia cell line P388,cytotoxic effects
"CCCCCCCCCCCCCCCC(=O)C1=C(O)[C@@H](CO)OC1=O [RK-682, (R)-4-Hydroxy-5-(hydroxymethyl)-3-(1-oxohexadecyl)-2(5H)-furanone]",IC50,PTP1B [1],4.5 µM
"CC1CCCC(CC2Cc3c(O)c(O)cc(O)c3C(=O)O2)O1 (stereo not shown) [compound 1, Asperentin B]",IC50,"[2]; in vitro, duplicates, read-out: IC50 value against PTP1B",2.05 µM and 2 µM
same,inhibition at 100 µM,"Propionibacterium acnes; Cutibacterium acnes, 100 μM test concentration",57%
same,antibiotic activity against Xanthomonas campestris,Xanthomonas campestris,No antibiotic activity; also recorded: did not exhibit
same,antibiotic activity against Septoria tritici (in words),Septoria tritici; concentrations of 100 μM,No antibiotic activity
same,antibiotic activity against Candida albicans,[3],No antibiotic activity
same,antibiotic activity against Bacillus subtilis,[4],No antibiotic activity; also recorded: did not exhibit
same,antibiotic activity against Staphylococcus lentus,[5],No antibiotic activity; also recorded: did not exhibit
same,cytotoxic effects against HepG2,HepG2,No activities were not found
same,cytotoxic effects against HT29,[6],did not exhibit cytotoxic activities
"C[C@H]1CCC[C@H](C[C@H]2Cc3cc(O)cc(O)c3C(=O)O2)O1 [compound 2, asperentin]",inhibition of PTP1B enzymatic activity (in words),[2],did not show any activity; also recorded: did not show any inhibition
same,activity against P. acnes (in words),Propionibacterium acnes,did not show any activity
same,antibiotic activity against Xanthomonas campestris,Xanthomonas campestris,did not exhibit
same,inhibition at 100 µM,"Septoria tritici; Zymoseptoria tritici, read-out: inhibition of S. tritici in comparison to the positive control clotrimazole, concentration of 100 μM",83%
same,antibiotic activity against Bacillus subtilis,[4],did not exhibit; also recorded: not inhibited
same,antibiotic activity against Staphylococcus lentus,[5],did not exhibit
same,cytotoxic effects against HT29,[6],did not exhibit cytotoxic activities
same,inhibition at 100 µM,[7],100%
same,"minimum inhibitory concentration (MIC), five dermatophytes including Trichophyton rubrum",[8],75 µg/mL
same,"minimum inhibitory concentration (MIC), Rhizoctonia solani",Rhizoctonia solani,75 µg/mL
same,"MIC, Arthrobacter citreus",Arthrobacter citreus,1 µg/mL
same,"MIC, Bacillus brevis",Bacillus brevis,0.05 µg/mL
same,"MIC, Sarcina lutea",Sarcina lutea,2000 µg/mL
same,"growth inhibition, etiolated wheat coleoptile assay",[9],81%
same,activity against Colletotrichum gleosporoides,[10],active
same,activity against Botrytis cinerea,Botrytis cinerea,active
"C[C@H]1CCC[C@@H](C[C@H]2Cc3cc(O)cc(O)c3C(=O)O2)O1 [isoasperentin, reference compound]","growth inhibition, etiolated wheat coleoptile assay",[9],100%
Cc1cc2cc(O)cc(O)c2c2oc(=O)cc(O)c12 [pannorin],inhibition of GSK-3 β (in words),[11],inhibitor
Cc1ccc(C(=O)Nc2ccc(S(=O)(=O)O)c3cc(S(=O)(=O)O)cc(S(=O)(=O)O)c23)cc1NC(=O)c1cccc(NC(=O)Nc2cccc(C(=O)Nc3cc(C(=O)Nc4ccc(S(=O)(=O)O)c5cc(S(=O)(=O)O)cc(S(=O)(=O)O)c45)ccc3C)c2)c1 [suramin],IC50,PTP1B [12],11 µM
Monoacetyl asperentin [reference compound],"MIC, four dermatophytes including Trichophyton rubrum",[8],75 µg/mL
same,"MIC, Micrococcus flavus",Micrococcus flavus,75 µg/mL
brevianamide W,antioxidant activity,[13],antioxidant activity
dimethyl asperentin [reference compound],"MIC, Arthrobacter citreus",Arthrobacter citreus,> 100 µg/mL
same,"MIC, Bacillus brevis",Bacillus brevis,10 µg/mL
same,"MIC, Sarcina lutea",Sarcina lutea,> 100 µg/mL
